Test results from US6977262B2, “Dihydropyrazolopyridine compounds and pharmaceutical use thereof” (Mitsubishi Pharma Corporation, priority 2001, dated 2005).
Where a name gives a salt, the structure may show the parent alone.

`CC1=C(C(=O)NN)C(c2ccccc2Cl)c2c[nH]nc2N1` (stereo not shown) [Example 9, 4-(2-Chlorophenyl)-5-hydrazinocarbonyl-4,7-dihydro-6-methyl-2H-pyrazolo[3,4-b]pyridine] showed a melting point of 220 °C.
Work on `N#CC1=C(c2ccccc2)Nc2n[nH]cc2C1c1cccc(F)c1F` (stereo not shown) [Example 149, 5-Cyano-4-(2,3-difluorophenyl)-4,7-dihydro-6-phenyl-2H-pyrazolo[3,4-b]pyridine] yielded a melting point of 165 °C.
`N#CC1=C(C2CNCCO2)Nc2n[nH]cc2C1c1cccc(C#N)c1Br.O=C(O)C(F)(F)F` (stereo not shown) showed a melting point of 236 °C.
Molecule `CCOC(=O)CCC1=C(C#N)C(c2ccccc2Cl)c2c[nH]nc2N1` (stereo not shown) [Example 254, 4-(2-Chlorophenyl)-5-cyano-6-(2-ethoxycarbonylethyl)-4,7-dihydro-2H-pyrazolo[3,4-b]pyridine] has a melting point of 172 to 174 °C.
`N#CC1=C(C2CCC2)Nc2n[nH]cc2C1c1cccc2nonc12` (stereo not shown) [Example 322, 4-(2,1,3-Benzoxadiazol-4-yl)-5-cyano-6-cyclobutyl-4,7-dihydro-2H-pyrazolo[3,4-b]pyridine] showed a melting point of 194 °C.
With `N#CC1=C(c2cccs2)Nc2n[nH]cc2C1c1cccc2ccccc12` (stereo not shown) [Example 246, 5-Cyano-4,7-dihydro-4-(naphthalen-1-yl)-6-(thiophen-2-yl)-2H-pyrazolo[3,4-b]pyridine] the melting point was 214 °C.
In the case of `CCCC1=C(C(=O)OCC)C(c2ccoc2C)c2c[nH]nc2N1` (stereo not shown) [Example 61, Ethyl 4,7-dihydro-4-(2-methylfuran-3-yl)-6-propyl-2H-pyrazolo[3,4-b]pyridine-5-carboxylate], the melting point is reported as 123 to 125 °C.
For `CCOC(=O)C1=C(C(F)(F)F)Nc2n[nH]cc2C1c1ccsc1` (stereo not shown) [Example 23, Ethyl 4,7-dihydro-4-(thiophen-3-yl)-6-trifluoromethyl-2H-pyrazolo[3,4-b]pyridine-5-carboxylate], the melting point was 140 to 145 °C.
`CCOC(=O)C1=C(c2ccccc2)Nc2n[nH]cc2C1c1cccc2nonc12` (stereo not shown) [Example 114, Ethyl 4-(2,1,3-benzoxadiazol-4-yl)-4,7-dihydro-6-phenyl-2H-pyrazolo[3,4-b]pyridine-5-carboxylate] gave a melting point of 190 °C.
`CCCC1=C(C#N)C(c2ccccc2Cl)c2c(n[nH]c2CCC)N1` (stereo not shown) [Example 302, 4-(2-Chlorophenyl)-5-cyano-4,7-dihydro-3,6-dipropyl-2H-pyrazolo[3,4-b]pyridine] showed a melting point of 237 °C.
In the case of `CCCC1=C(C#N)C(c2ccccc2Cl)c2c(n[nH]c2-c2ccccc2OC)N1` (stereo not shown) [Example 296, 4-(2-Chlorophenyl)-5-cyano-4,7-dihydro-3-(2-methoxyphenyl)-6-propyl-2H-pyrazolo[3,4-b]pyridine], the melting point is reported as greater than 270 °C.
Molecule `CN1CCOC(C2=C(C#N)C(c3cccc(C#N)c3Br)c3c[nH]nc3N2)C1` (stereo not shown) (as salt: trifluoroacetate) [Example 1046, 4-(2-Bromo-3-cyanophenyl)-5-cyano-4,7-dihydro-6-(4-methylmorpholin-2-yl)-2H-pyrazolo[3,4-b]pyridine] has a melting point of 180 °C.
`N#CC1=C(C2CC(=O)N(Cc3ccccc3)C2)Nc2n[nH]cc2C1c1ccccc1Cl` (stereo not shown) [Example 1083, 6-(1-Benzyl-2-oxopyrrolidin-4-yl)-4-(2-chlorophenyl)-5-cyano-4,7-dihydro-2H-pyrazolo[3,4-b]pyridine] showed a melting point greater than 230 °C.
`CCCC1=C(C(=O)OCC)C(c2ccccc2Cl)c2cnn(C(=O)OCc3ccccc3)c2N1` (stereo not shown) [Example 208, Ethyl 1-benzyloxycarbonyl-4-(2-chlorophenyl)-4,7-dihydro-6-propyl-1H-pyrazolo[3,4-b]pyridine-5-carboxylate] gave a melting point of 80 °C.
Molecule `CC(C)(C)C1=C(C#N)C(c2cccc3nonc23)c2c[nH]nc2N1` (stereo not shown) [Example 320, 4-(2,1,3-Benzoxadiazol-4-yl)-6-t-butyl-5-cyano-4,7-dihydro-2H-pyrazolo[3,4-b]pyridine] has a melting point of 204 °C.
For `CCC1=C(C#N)C(c2cccc(C#N)c2Br)c2c[nH]nc2N1` (stereo not shown) [Example 198, 4-(2-Bromo-3-cyanophenyl)-5-cyano-6-ethyl-4,7-dihydro-2H-pyrazolo[3,4-b]pyridine], the melting point was greater than 300 °C.
Work on `CCCC1=C(C#N)C(c2ccccc2Cl)c2c(n[nH]c2-c2ccco2)N1` (stereo not shown) [Example 295, 4-(2-Chlorophenyl)-5-cyano-4,7-dihydro-3-(furan-2-yl)-6-propyl-2H-pyrazolo[3,4-b]pyridine] yielded a melting point of 253 °C.
With `N#CC1=C(C2CC2)Nc2n[nH]cc2C1c1ccccc1[N+](=O)[O-]` (stereo not shown) [Example 272, 5-Cyano-6-cyclopropyl-4,7-dihydro-4-(2-nitrophenyl)-2H-pyrazolo[3,4-b]pyridine] the melting point was 236 to 238 °C (dec.).
`CCCC1=C(C(=O)OCC)C(c2ccccc2Cl)c2c(n[nH]c2C)N1` (stereo not shown) [Example 230, Ethyl 4-(2-chlorophenyl)-4,7-dihydro-3-methyl-6-propyl-2H-pyrazolo[3,4-b]pyridine-5-carboxylate] gave a melting point of 164 to 165 °C.
Molecule `CCCC1=C(C(=O)OCC)C(c2cccc(C(F)(F)F)c2Cl)c2c[nH]nc2N1` (stereo not shown) [Example 47, Ethyl 4-(2-chloro-3-trifluoromethylphenyl)-4,7-dihydro-6-propyl-2H-pyrazolo[3,4-b]pyridine-5-carboxylate] has a melting point of 236 to 238 °C.
Work on `CCOC(=O)C1=C(C(F)(F)F)Nc2n[nH]c(C)c2C1c1ccccc1Cl` (stereo not shown) [Example 21, Ethyl 4-(2-chlorophenyl)-4,7-dihydro-3-methyl-6-trifluoromethyl-2H-pyrazolo[3,4-b]pyridine-5-carboxylate] yielded a melting point of 165 to 168 °C.
In the case of `N#CC1=C(c2ccccc2)Nc2n[nH]cc2C1c1cccc(Cl)c1Cl` (stereo not shown) [Example 145, 5-Cyano-4-(2,3-dichlorophenyl)-4,7-dihydro-6-phenyl-2H-pyrazolo[3,4-b]pyridine], the melting point is reported as 162 °C.
Work on `CCCC1=C(C(=O)OCC)C(c2ccccc2Cl)c2cnn(C(C)=O)c2N1` (stereo not shown) [Example 224, Ethyl 1-acetyl-4-(2-chlorophenyl)-4,7-dihydro-6-propyl-1H-pyrazolo[3,4-b]pyridine-5-carboxylate] yielded a melting point of 75 to 76 °C.
In the case of `CCCC1=C(C#N)C(c2ccccc2Cl)c2c(n[nH]c2-c2ccc(OC)cc2)N1` (stereo not shown) [Example 290, 4-(2-Chlorophenyl)-5-cyano-4,7-dihydro-3-(4-methoxyphenyl)-6-propyl-2H-pyrazolo[3,4-b]pyridine], the melting point is reported as 284 °C.
Work on `CCCC1=C(C(=O)OCC)C(c2cccc(C)c2Cl)c2c[nH]nc2N1` (stereo not shown) [Example 178, Ethyl 4-(2-chloro-3-methylphenyl)-4,7-dihydro-6-propyl-2H-pyrazolo[3,4-b]pyridine-5-carboxylate] yielded a melting point of 198 to 200 °C.
Molecule `COCC1=C(C(=O)OC)C(c2ccccc2OC)c2c[nH]nc2N1` (stereo not shown) [Example 91, Methyl 4,7-dihydro-6-methoxymethyl-4-(2-methoxyphenyl)-2H-pyrazolo[3,4-b]pyridine-5-carboxylate] has a melting point of 186 °C.
With `CCCC1=C([N+](=O)[O-])C(c2ccccc2OC)c2c[nH]nc2N1` (stereo not shown) [Example 119, 4,7-Dihydro-4-(2-methoxyphenyl)-5-nitro-6-propyl-2H-pyrazolo[3,4-b]pyridine] the melting point was 223 °C.
`N#CC1=C(CN2C(=O)c3ccccc3C2=O)Nc2n[nH]cc2C1c1ccccc1Cl` (stereo not shown) [Example 1079, 4-(2-Chlorophenyl)-5-cyano-4,7-dihydro-6-phthalimidomethyl-2H-pyrazolo[3,4-b]pyridine] gave a melting point greater than 250 °C.
`N#CC1=C(C2CCCNC2)Nc2n[nH]cc2C1c1cccc2nonc12` (stereo not shown) [Example 1005, 4-(2,1,3-Benzoxadiazol-4-yl)-5-cyano-4,7-dihydro-6-(piperidin-3-yl)-2H-pyrazolo[3,4-b]pyridine] gave a melting point of 202 °C.
In the case of `CCCC1=C(C(=O)OCC)C(c2ccccc2Cl)c2cnn(C(=O)c3ccccc3)c2N1` (stereo not shown) [Example 210, Ethyl 1-benzoyl-4-(2-chlorophenyl)-4,7-dihydro-6-propyl-1H-pyrazolo[3,4-b]pyridine-5-carboxylate], the melting point is reported as 115 °C.
`CCCC1=C(C(=O)OCC)C(c2ccccc2Cl)c2cn(C(=O)OC(C)(C)C)nc2N1` (stereo not shown) [Example 205, Ethyl 2-tert-butoxycarbonyl-4-(2-chlorophenyl)-4,7-dihydro-6-propyl-2H-pyrazolo[3,4-b]pyridine-5-carboxylate] gave a melting point of 144 to 147 °C.
With `CCCC1=C(C(=O)OCC)C(c2cccc(C#N)c2Br)c2c[nH]nc2N1` (stereo not shown) [Example 183, Ethyl 4-(2-bromo-3-cyanophenyl)-4,7-dihydro-6-propyl-2H-pyrazolo[3,4-b]pyridine-5-carboxylate] the melting point was 210 to 212 °C (dec.).
Work on `COc1ccccc1C1=C(C#N)C(c2cccc3nsnc23)c2c[nH]nc2N1` (stereo not shown) [Example 163, 4-(2,1,3-Benzothiadiazol-4-yl)-5-cyano-4,7-dihydro-6-(2-methoxyphenyl)-2H-pyrazolo[3,4-b]pyridine] yielded a melting point of 231 °C.
In the case of `CC(=O)C1=C(C#N)C(c2cccc(C#N)c2Br)c2c[nH]nc2N1` (stereo not shown) [Example 1081, 6-Acetyl-4-(2-bromo-3-cyanophenyl)-5-cyano-4,7-dihydro-2H-pyrazolo[3,4-b]pyridine], the melting point is reported as greater than 230 °C.
With `CC(C)C1=C(C#N)C(c2cccc(Cl)c2Cl)c2c[nH]nc2N1` (stereo not shown) [Example 263, 5-Cyano-4-(2,3-dichlorophenyl)-4,7-dihydro-6-isopropyl-2H-pyrazolo[3,4-b]pyridine] the melting point was greater than 250 °C.
With `CCCC1=C(C(=O)OCC)C(c2cccc3ccccc23)c2c[nH]nc2N1` (stereo not shown) [Example 66, Ethyl 4,7-dihydro-4-(naphthalen-1-yl)-6-propyl-2H-pyrazolo[3,4-b]pyridine-5-carboxylate] the melting point was 182 °C.
`CCCC1=C(C(=O)OCC)C(c2c(F)cccc2F)c2c[nH]nc2N1` (stereo not shown) [Example 54, Ethyl 4-(2,6-difluorophenyl)-4,7-dihydro-6-propyl-2H-pyrazolo[3,4-b]pyridine-5-carboxylate] gave a melting point of 185 °C.
With `CC(C)C1=C(C#N)C(c2cccc(C#N)c2Br)c2c[nH]nc2N1` (stereo not shown) [Example 260, 4-(2-Bromo-3-cyanophenyl)-5-cyano-4,7-dihydro-6-isopropyl-2H-pyrazolo[3,4-b]pyridine] the melting point was greater than 250 °C.
Molecule `CCC1=C([N+](=O)[O-])C(c2cccc(Cl)c2Cl)c2c[nH]nc2N1` (stereo not shown) [Example 126, 4-(2,3-Dichlorophenyl)-6-ethyl-4,7-dihydro-5-nitro-2H-pyrazolo[3,4-b]pyridine] has a melting point of 250 °C.
With `Cl.Cl.Cl.N#CC1=C(CN2CCN(c3cccc4ccccc34)CC2)Nc2n[nH]cc2C1c1ccccc1Cl` (stereo not shown) the melting point was 203 to 205 °C (dec.).
